Assay results: patent US20260297060A1, “COMPOUNDS FOR THE DEGRADATION OF MUTANT BRAF” (C4 THERAPEUTICS, INC., priority 2023, published 2026)
Like-named read-outs stand apart in the source and are kept apart here.

Experiment: Pharmacokinetics after 21 days dosing in the efficacy study (plasma, tumor and brain concentrations; plasma AUC at steady state), Example 14
Format: in vivo, female BALB/c nude mice
Details: for Concentration in Brain / concentration at 24 h: 24 h; for Concentration in Brain: BQL: below the lower limit of quantitation; for concentration at 4 h / concentration at 24 h / concentration at 0.25 h / concentration at 0.5 h / concentration at 1 h / concentration at 2 h / concentration at 8 h / concentration at 10 h: mouse, po
Procedure: Agents were tested in the A375 human melanoma xenografts. Compound 26 and Compound 141 were administered to BALB/c nude mice bearing A375 tumors from PG-DO and dosed via PO twice a day (BID) or third a day (TIP) or dosed P daily (QD) from PG-D. Dabrafenib was administered to BALB/c nude mice bearing A375 tumors from PG-D1 and dosed via P daily (QD). Compound 26 was dosed at 1.5 mg/kg (QD), 2 mg/kg (TID), 3 mg/kg (BID), 6 mg/kg (QD) and 10 mg/kg (BID) for 21 days. Compound 141 was dosed at 0.75 mg/kg (BID), 1 mg/kg (TID), 1.5 mg/kg (BID), 3 mg/kg (QD) and 5 mg/kg (BID) for 21 days. Dabrafenib was dosed at 100 mg/kg for 21 days. This study was non-GLP.
The plasma samples were collected at predetermined time points for PK analysis. For non-termination plasma collection: the blood samples were collected into the 1.5 mL Eppendorf tubes containing 3 μL of 0.5 M EDTA-K2. And then the anticoagulant blood samples were centrifuged at 2,500 g at 4° C. for 15 minutes. For termination plasma collection: the mice was euthanized at predetermined time points post the treatment, the blood samples were collected into the 1.5 mL Eppendorf tubes containing 15 μL of 0.5 M EDTA-K2. And then the anticoagulant blood samples were centrifuged at 2,500 g at 4° C. for 15 minutes. The plasma samples were separated into 2 aliquots. The 1st was used for PK analysis, and the 2nd was served as backup.
The tumor samples were collected at predetermined time points for PK and WB analysis. The tumor was dissected out and split into 3 parts. The 1st part was used for PK analysis, the 2nd part was used for WB analysis and the last one was used as backup for the study. The samples were transferred into pre-labeled tubes and quickly froze in liquid nitrogen within 2 minutes after dissection. The samples were stored at −80° C. before analysis.
The brain samples were collected at predetermined time points for PK and potential WB analysis. The brain was dissected out and split into 3 parts (left brain, right brain upper and right brain lower), the left brain was used for PK, the right brain upper was used for WB and the last one was used as the backup for the study. The samples were transferred into pre-labeled tubes and quickly froze in liquid nitrogen within 2 minutes after dissection. The samples were stored at −80° C. before analysis.
The harvested plasma and tumor samples were processed for pharmacokinetics analysis by LC-MS/MS with a concentration range of 1.00-1,000 ng/mL for dabrafenib in plasma and 0.0500-50 ng/mL in tumor and brain homogenate, 5.00-10,000 ng/mL for Compound 141 in plasma and 0.200~200 ng/ml in tumor and brain homogenate. 20.0~20,000 ng/mL for Compound 26 in plasma and 0.5~500 ng/mL for Compound 26 tumor and brain homogenate.
Dabrafenib, Compound 26 and Compound 141 in female BALB/c nude mice plasma (K2-EDTA), tumor and brain homogenate were analyzed by LC-MS/MS (Triple Quad 6500+ Low Mass). Verapamil (5 ng/mL) in acetonitrile: methanol (V: V=95:5) was used as the internal standard for Dabrafenib, Compound 26 and Compound 141 in plasma. Verapamil (0.5 ng/mL) in acetonitrile: methanol (V: V=95:5) was used as the internal standard for Dabrafenib, Compound 26 and Compound 141 in tumor and brain homogenate.
An aliquot of 10 μL unknown sample, calibration standard, quality control, dilute quality control, single blank and double blank samples were added to the 96-well plate. Each sample for Dabrafenib, Compound 26 and Compound 141 in plasma (except the double blank) was quenched with 200 μL IS respectively (double blank sample was quenched with 200 μL ACN: MeOH (V: V=95:5)); each sample for Dabrafenib, Compound 26 and Compound 141 in tumor and brain(except the double blank) was quenched with 100 μL IS respectively (double blank sample was quenched with 100 μL ACN: MeOH (V: V=95:5)); and then the mixture was vortex-mixed for 5 min at 800 rpm and centrifuged for 15 min at 3220 g (4000 rpm), 4° C. […]

[1] = plasma, 0.75 mg/kg p.o. BID x 21 days, mean ± SEM
[2] = plasma, 0.75 mg/kg p.o. BID x 21 days, mean ± SEM, read-out: Concentration in Plasma
[3] = plasma, 1 mg/kg p.o. TID x 21 days, mean ± SEM
[4] = plasma, 1 mg/kg p.o. TID x 21 days, mean ± SEM, read-out: Concentration in Plasma
[5] = plasma, 1.5 mg/kg p.o. BID x 21 days, mean ± SEM
[6] = plasma, 1.5 mg/kg p.o. BID x 21 days, mean ± SEM, read-out: Concentration in Plasma
[7] = plasma, 3 mg/kg p.o. QD x 21 days, mean ± SEM
[8] = plasma, 3 mg/kg p.o. QD x 21 days, mean ± SEM, read-out: Concentration in Plasma
[9] = plasma, 5 mg/kg p.o. BID x 21 days, mean ± SEM
[10] = plasma, 5 mg/kg p.o. BID x 21 days, mean ± SEM, read-out: Concentration in Plasma
[11] = tumor, 1 mg/kg p.o. TID x 21 days, mean ± SEM, read-out: Concentration in Tumor
[12] = tumor, 1.5 mg/kg p.o. BID x 21 days, mean ± SEM, read-out: Concentration in Tumor

Which “Concentration in Brain” value (0.75 mg/kg p.o. BID x 21 days) does the source give for CCN(C)S(=O)(=O)Nc1ccc(F)c(Oc2ccc3ncn(C4CC5(CCN(C6CC7(C6)CN(c6cc8c(cc6F)c(N6CCC(=O)NC6=O)nn8C)C7)CC5)C4)c(=O)c3c2)c1C#N (stereo not drawn) [Compound 141, 6-[2-cyano-3-[[ethyl(methyl)sulfamoyl]amino]-6-fluoro-phenoxy]-3-[7-[2-[3-(2,4-dioxohexahydropyrimidin-1-yl)-5-fluoro-1-methyl-indazol-6-yl]-2-azaspiro[3.3]heptan-6-yl]-7-azaspiro[3.5]nonan-2-yl]-4-oxo-quinazoline] here?
The value was “BQL”.

And the “Concentration in Brain” value (1 mg/kg p.o. TID x 21 days)?
The value was “BQL”.

And the “Concentration in Brain” value (1.5 mg/kg p.o. BID x 21 days)?
The value was “BQL”.

What about the “Concentration in Brain” value (3 mg/kg p.o. QD x 21 days) of the same compound?
Its value is “BQL”.

What about the concentration at 4 h (brain, 0.75 mg/kg p.o. BID x 21 days, mean ± SEM, read-out: Concentration in Brain) of the same compound?
The concentration at 4 h was 10.7 ± 2.04 ng/g.

And the concentration at 4 h (brain, 1 mg/kg p.o. TID x 21 days, mean ± SEM, read-out: Concentration in Brain)?
Its concentration at 4 h is 12.4 ± 2.79 ng/g.

What about the concentration at 4 h (brain, 1.5 mg/kg p.o. BID x 21 days, mean ± SEM, read-out: Concentration in Brain) of the same compound?
The concentration at 4 h was 10.1 ± 1.79 ng/g.

And the concentration at 4 h (brain, 3 mg/kg p.o. QD x 21 days, mean ± SEM, read-out: Concentration in Brain)?
Its concentration at 4 h is 22.9 ± 2.7 ng/g.

What about the concentration at 4 h (brain, 5 mg/kg p.o. BID x 21 days, mean ± SEM, read-out: Concentration in Brain) of the same compound?
The concentration at 4 h was 51.4 ± 21.7 ng/g.

What about the concentration at 24 h (brain, 5 mg/kg p.o. BID x 21 days, read-out: Concentration in Brain) of the same compound?
The concentration at 24 h was 2.25 ng/g.

What about the concentration at 0.25 h [1] of the same compound?
The concentration at 0.25 h was 369 ± 64.7 ng/mL.

What about the concentration at 0.5 h [1] of the same compound?
Its concentration at 0.5 h is 732 ± 139 ng/mL.

What about the concentration at 1 h [1] of the same compound?
The concentration at 1 h was 1140 ± 226 ng/mL.

And the concentration at 2 h [1]?
The concentration at 2 h was 1280 ± 277 ng/mL.

And the concentration at 4 h [2]?
The concentration at 4 h was 663 ± 79 ng/mL.

What about the concentration at 8 h [1] of the same compound?
The concentration at 8 h was 432 ± 45.3 ng/mL.

What about the concentration at 10 h [1] of the same compound?
The concentration at 10 h was 343 ± 34.9 ng/mL.

And the concentration at 24 h [2]?
The concentration at 24 h was 10.8 ± 2.44 ng/mL.

And the concentration at 0.25 h [3]?
Its concentration at 0.25 h is 950 ± 130 ng/mL.

What about the concentration at 0.5 h [3] of the same compound?
Its concentration at 0.5 h is 1750 ± 165 ng/mL.

And the concentration at 1 h [3]?
Its concentration at 1 h is 1930 ± 416 ng/mL.

What about the concentration at 2 h [3] of the same compound?
Its concentration at 2 h is 1760 ± 262 ng/mL.

What about the concentration at 4 h [4] of the same compound?
The concentration at 4 h was 850 ± 185 ng/mL.

And the concentration at 8 h [3]?
Its concentration at 8 h is 780 ± 53.4 ng/mL.

What about the concentration at 10 h [3] of the same compound?
Its concentration at 10 h is 676 ± 42.5 ng/mL.

What about the concentration at 24 h [4] of the same compound?
Its concentration at 24 h is 33.7 ± 4.48 ng/mL.

What about the concentration at 0.25 h [5] of the same compound?
The concentration at 0.25 h was 702 ± 91.7 ng/mL.

And the concentration at 0.5 h [5]?
Its concentration at 0.5 h is 1360 ± 270 ng/mL.

And the concentration at 1 h [5]?
The concentration at 1 h was 1940 ± 211 ng/mL.

What about the concentration at 2 h [5] of the same compound?
Its concentration at 2 h is 2120 ± 241 ng/mL.

And the concentration at 4 h [6]?
Its concentration at 4 h is 950 ± 365 ng/mL.

What about the concentration at 8 h [5] of the same compound?
Its concentration at 8 h is 523 ± 19.7 ng/mL.

What about the concentration at 10 h [5] of the same compound?
The concentration at 10 h was 328 ± 12.4 ng/mL.

And the concentration at 24 h [6]?
Its concentration at 24 h is 11.2 ± 2.61 ng/mL.

And the concentration at 0.25 h [7]?
Its concentration at 0.25 h is 1580 ± 247 ng/mL.

And the concentration at 0.5 h [7]?
The concentration at 0.5 h was 2850 ± 361 ng/mL.

What about the concentration at 1 h [7] of the same compound?
The concentration at 1 h was 5130 ± 799 ng/mL.

And the concentration at 2 h [7]?
The concentration at 2 h was 5290 ± 555 ng/mL.

And the concentration at 4 h [8]?
The concentration at 4 h was 2430 ± 222 ng/mL.

And the concentration at 8 h [7]?
Its concentration at 8 h is 869 ± 101 ng/mL.

What about the concentration at 10 h [7] of the same compound?
The concentration at 10 h was 617 ± 41.7 ng/mL.

What about the concentration at 24 h [8] of the same compound?
The concentration at 24 h was 12.2 ± 1.4 ng/mL.

And the concentration at 0.25 h [9]?
The concentration at 0.25 h was 2930 ± 226 ng/mL.

What about the concentration at 0.5 h [9] of the same compound?
Its concentration at 0.5 h is 6300 ± 457 ng/mL.

And the concentration at 1 h [9]?
Its concentration at 1 h is 6340 ± 1160 ng/mL.

What about the concentration at 2 h [9] of the same compound?
Its concentration at 2 h is 6130 ± 1280 ng/mL.

And the concentration at 4 h [10]?
The concentration at 4 h was 3730 ± 1140 ng/mL.

What about the concentration at 8 h [9] of the same compound?
The concentration at 8 h was 3260 ± 243 ng/mL.

And the concentration at 10 h [9]?
The concentration at 10 h was 2370 ± 37.1 ng/mL.

And the concentration at 24 h [10]?
The concentration at 24 h was 38.9 ± 5.18 ng/mL.

What about the concentration at 4 h (tumor, 0.75 mg/kg p.o. BID x 21 days, mean ± SEM, read-out: Concentration in Tumor) of the same compound?
The concentration at 4 h was 160 ± 24.9 ng/g.

What about the concentration at 24 h (tumor, 0.75 mg/kg p.o. BID x 21 days, read-out: Concentration in Tumor) of the same compound?
The concentration at 24 h was 33 ng/g.

And the concentration at 4 h [11]?
The concentration at 4 h was 390 ± 107 ng/g.

And the concentration at 24 h [11]?
Its concentration at 24 h is 14.3 ± 4.44 ng/g.

What about the concentration at 4 h [12] of the same compound?
Its concentration at 4 h is 317 ± 61.6 ng/g.

And the concentration at 24 h [12]?
Its concentration at 24 h is 6.7 ng/g.

What about the concentration at 4 h (tumor, 3 mg/kg p.o. QD x 21 days, mean ± SEM, read-out: Concentration in Tumor) of the same compound?
The concentration at 4 h was 909 ± 165 ng/g.

What about the concentration at 24 h (tumor, 3 mg/kg p.o. QD x 21 days, read-out: Concentration in Tumor) of the same compound?
Its concentration at 24 h is 3.01 ng/g.

And the concentration at 4 h (tumor, 5 mg/kg p.o. BID x 21 days, mean ± SEM, read-out: Concentration in Tumor)?
Its concentration at 4 h is 1300 ± 471 ng/g.

What about the concentration at 24 h (tumor, 5 mg/kg p.o. BID x 21 days, read-out: Concentration in Tumor) of the same compound?
Its concentration at 24 h is 79.3 ng/g.
